Here are results for six molecules from PMC6369240, “Biological evaluation and structure activity relationship of 9-methyl-1-phenyl-9H-pyrido[3,4-b]indole derivatives as anti-leishmanial agents” (Bioorganic Chemistry, 2019).

Data set [1] can be described thus: HeLa cell cytotoxicity, Alamar blue assay. Format: cell-based. The following applies: human; HeLa cells, ~65 h incubation plus 5 h Alamar Blue. The method, then: HeLa cell cytotoxicity studies were carried out as described previously. Briefly, the cells were cultured in DMEM supplemented with 10% fetal calf serum and 2 mM L-glutamine. Cells were plated at initial cell concentration of 2 × 10^4 cells/well and incubated with the compounds for ∼65 h prior to addition of Alamar Blue solution for further 5 h.
Background: Resazurin is reduced to fluorescent resorufin, in cell work by metabolically active cells.

Data set [2] concerns L. infantum JPCM5 MCAN/ES/98/LLM-87 promastigotes. The experiment in a line: L. infantum promastigote assay (Alamar blue). Format: cell-based, Leishmania infantum. Conditions: for S.I (CC50/IC50), L. infantum promastigote: HeLa CC50 / L. infantum promastigote EC50; for EC50: 72 h, Alamar blue. Here is the method: (§1) Anti-leishmanial activity of these analogues was determined by evaluating their inhibition activity against both promastigote, amastigote forms of Leishmania infantum and Leishmania donovani strains. […] Anti-leishmanial drugs miltefosine and pentamidine were used as standards for comparison purpose.
Anti-promastigote activity of these reported β-carboline derivatives was determined by Alamar blue assay method.
(§2) L. donovanipromastigotes were cultured at 37 °C in M199 medium supplemented with 10% heat-inactivated fetal calf serum. L. infantum JPCM5 MCAN/ES/98/LLM-87 promastigotes were cultured at 26 °C in modified Eagle’s medium (HOMEM). Parasites were incubated with serial dilutions of compounds for 72 h, followed by Alamar blue-based assay as previously described.

The subject of data set [3] is L. infantum JPCM5 MCAN/ES/98/LLM-87 axenic amastigotes. The data set is described as follows: L. infantum axenic amastigote assay (Alamar blue). The following applies: for S.I (CC50/IC50), L. infantum axenic amastigote: HeLa CC50 / L. infantum axenic amastigote EC50; for EC50: Leishmania infantum, 72 h, Alamar blue. Format: cell-based, Leishmania infantum. Here is the method:
Alamar blue assay method was used to determine inhibition potential of these β-carboline derivatives against (human life stage forms) axenic amastigotes.
(§3) L. donovaniLdBOB axenic amastigotes or L. infantum JPCM5 MCAN/ES/98/LLM-87 were cultured at 37 °C in modified Eagle’s medium (HOMEM; L. infantum) and axenic amastigotes were incubated for 72 h with compounds, followed by Alamar blue-based assay as previously described.

In data set [4] the test system is L. donovani promastigotes. The experiment in a line: L. donovani promastigote assay (Alamar blue). Format: cell-based, Leishmania donovani. Conditions: for S.I (CC50/IC50), L. donovani promastigote: HeLa CC50 / L. donovani promastigote EC50; for EC50: Leishmania donovani, 72 h, Alamar blue. Here is the method:
as §1
L. donovani promastigote inhibition potency of these reported β-carboline derivatives was determined by Alamar blue assay method.
as §2

Data set [5] concerns L. donovani LdBOB axenic amastigotes. The experiment in a line: L. donovani axenic amastigote assay (Alamar blue). Conditions: for EC50: 72 h, Alamar blue; for S.I (CC50/IC50), L. donovani axenic amastigote: HeLa CC50 / L. donovani axenic amastigote EC50. It is filed as cell-based, Leishmania donovani. Here is the method:
as §3

Data set [6] deals with L. donovani LdBOB intracellular amastigotes in PMA differentiated THP-1 cells. The data set is described as follows: Intra macrophage L. donovani (amastigote) assay in THP-1 cells. It is filed as cell-based, Leishmania donovani. Conditions: for S.I (CC50/IC50), L. donovani intracellular amastigote: HeLa CC50 / L. donovani intracellular amastigote EC50; for EC50: THP-1 macrophages, 72 h, microscopy readout. The method, then: Although, axenic amastigotes assay most commonly used to screen new leishmanial agents are different from intracellular amastigotes in terms of protein expression and drug susceptibility. […] THP-1 (human monocytic leukemia) cells were a kind gift from Dr Susan Wylie (Dundee) and maintained in minimal essential medium plus 10% (vol/vol) FBS. […] Briefly, THP-1 cells (20,000 per well, 200 μL) were plated into 96 well plates in presence of 10 nM PMA and incubated at 37 °C in 5% CO2 atmosphere for 75 h. […] Any remaining extracellular amastigotes were removed and the adhered cells were washed with the same supplemented PBS solution as above. Pre-aliquoted compounds in a serial dilution were added from another plate, such that the total well volume was 200 μL and incubated for further 72 h. Cells were fixed with 100% methanol, stained with Giemsa and examined microscopically.

The conditions of data set [7]: introduction statement; cited from earlier work.
Setting [8] is: Leishmania donovani, THP-1, 72 h.

Some results are limits rather than exact numbers.

Regarding `COc1ccc(N2CCN(C(=O)c3cc4c5ccccc5n(C)c4c(-c4ccccc4)n3)CC2)cc1` [7d, (4-(4-methoxyphenyl)piperazin-1-yl)(9-methyl-1-phenyl-9H-pyrido[3,4-b]indol-3-yl)methanone], the melting point (usually the temperature of the solid-liquid transition) is 170 to 172 °C. For the same molecule, the CC50 (usually the concentration at which the toxic effect on the cells reaches its halfway point) in data set [1] was greater than 500 µM. Also, in data set [2], the “S.I (CC50/IC50), L. infantum promastigote” value is reported as greater than 314.5. In data set [3], the “S.I (CC50/IC50), L. infantum axenic amastigote” value is greater than 357.1 and the EC50 (as a rule, the concentration needed to bring the measured effect to its halfway point) was 1.4 ± 0.1 µM. In addition, in data set [4], the “S.I (CC50/IC50), L. donovani promastigote” value is reported as greater than 549.5 and the EC50 is 0.91 ± 0.09 µM. Moreover, in data set [5], the EC50 is 0.9 ± 0.1 µM and the “S.I (CC50/IC50), L. donovani axenic amastigote” value came to 555.6. In data set [5] (Leishmania donovani), this molecule had an EC50 of 0.91 µM. In addition, in data set [6], the “S.I (CC50/IC50), L. donovani intracellular amastigote” value came out at 384.6 and it took 1.3 ± 0.1 µM to reach a half-maximal effect (EC50). Besides, the EC50 in data set [6] (setting [8]) was 1.4 µM.
`COc1ccccc1N1CCN(C(=O)c2cc3c4ccccc4n(C)c3c(-c3ccccc3)n2)CC1` [7f, (4-(2-methoxyphenyl)piperazin-1-yl)(9-methyl-1-phenyl-9H-pyrido[3,4-b]indol-3-yl)methanone] showed a melting point of 168 to 170 °C. For the same molecule, the CC50 in data set [1] was greater than 500 µM. Besides, in data set [2], the “S.I (CC50/IC50), L. infantum promastigote” value is given as greater than 36.2. For the same molecule, it took 13.8 ± 0.9 µM to reach a half-maximal effect in data set [2] (Leishmania infantum) (EC50). In data set [3], the “S.I (CC50/IC50), L. infantum axenic amastigote” value was greater than 32.7 and the EC50 was 15.3 ± 1.1 µM. Moreover, in data set [4], the “S.I (CC50/IC50), L. donovani promastigote” value is recorded as greater than 59.4 and the EC50 turned out to be 8.42 ± 0.45 µM. For the same molecule, the “S.I (CC50/IC50), L. donovani axenic amastigote” value in data set [5] turned out to be 78.1. The same molecule showed an EC50 in data set [5] (Leishmania donovani) of 6.4 ± 0.2 µM. Besides, the “S.I (CC50/IC50), L. donovani intracellular amastigote” value in data set [6] came out at 42.4. The molecule also came in with an EC50 in data set [6] (setting [8]) of 11.8 ± 0.7 µM.
In turn, `Cn1c2ccccc2c2cc(C(=O)N3CCN(c4ccc(Cl)cc4)CC3)nc(-c3ccccc3)c21` [7g, (4-(4-chlorophenyl)piperazin-1-yl)(9-methyl-1-phenyl-9H-pyrido[3,4-b]indol-3-yl)methanone] gave a melting point of 160 to 162 °C. In addition, the CC50 in data set [1] was greater than 500 µM. Further, the “S.I (CC50/IC50), L. infantum promastigote” value in data set [2] is reported as greater than 340.1. The EC50 in data set [2] (Leishmania infantum) worked out at 1.47 ± 0.32 µM. Also, in data set [3], the “S.I (CC50/IC50), L. infantum axenic amastigote” value was greater than 263.2 and the EC50 came to 1.9 ± 0.2 µM. In addition, in data set [4], the “S.I (CC50/IC50), L. donovani promastigote” value is given as greater than 99.6 and it took 5.02 ± 0.36 µM to reach a half-maximal effect (EC50). Also, in data set [5], the “S.I (CC50/IC50), L. donovani axenic amastigote” value is reported as 131.6. This molecule also gave an EC50 in data set [5] (Leishmania donovani) of 3.8 ± 0.5 µM. Also, in data set [6], the “S.I (CC50/IC50), L. donovani intracellular amastigote” value is reported as 79.4. In data set [6] (setting [8]), this molecule had an EC50 of 6.3 ± 0.3 µM.
`Cn1c2ccccc2c2cc(C(=O)N3CCN(c4ccc([N+](=O)[O-])cc4)CC3)nc(-c3ccccc3)c21` [7j, (9-methyl-1-phenyl-9H-pyrido[3,4-b]indol-3-yl)(4-(4-nitrophenyl)piperazin-1-yl)methanone] showed a melting point of 200 to 202 °C. Besides, the CC50 in data set [1] was greater than 500 µM. Also, the “S.I (CC50/IC50), L. infantum promastigote” value in data set [2] is listed as greater than 25.3. For the same molecule, the EC50 in data set [2] (Leishmania infantum) was found to be 19.7 ± 1.7 µM. In addition, in data set [3], the “S.I (CC50/IC50), L. infantum axenic amastigote” value is recorded as greater than 34.2 and the EC50 came to 14.6 ± 2.9 µM. In addition, in data set [4], the “S.I (CC50/IC50), L. donovani promastigote” value is reported as greater than 38.2 and the EC50 worked out at 13.1 ± 1.5 µM. Besides, the “S.I (CC50/IC50), L. donovani axenic amastigote” value in data set [5] was 66.7. In data set [5] (Leishmania donovani), this molecule yielded an EC50 of 7.5 ± 0.4 µM. Further, in data set [6], the “S.I (CC50/IC50), L. donovani intracellular amastigote” value is on record as 32.5. The molecule further yielded a concentration giving a half-maximal response (EC50) in data set [6] (setting [8]) of 15.4 ± 0.9 µM.
`Cn1c2ccccc2c2cc(C(=O)N3CCN(c4ccc(F)cc4)CC3)nc(-c3ccccc3)c21` [7k, (4-(4-fluorophenyl)piperazin-1-yl)(9-methyl-1-phenyl-9H-pyrido[3,4-b]indol-3-yl)methanone] yielded a melting point of 188 to 190 °C. In addition, the CC50 in data set [1] is greater than 500 µM. Moreover, in data set [2], the “S.I (CC50/IC50), L. infantum promastigote” value is greater than 29.1. The molecule also displayed an EC50 in data set [2] (Leishmania infantum) of 17.2 ± 0.82 µM. Moreover, in data set [3], the “S.I (CC50/IC50), L. infantum axenic amastigote” value is listed as greater than 33.3 and a half-maximal effect (EC50) was put at 15 ± 1.3 µM. In addition, in data set [4], the “S.I (CC50/IC50), L. donovani promastigote” value was greater than 40.3 and the midpoint of the response, the EC50, lay at 12.4 ± 1.4 µM. For the same molecule, the “S.I (CC50/IC50), L. donovani axenic amastigote” value in data set [5] turned out to be 53.8. Moreover, in data set [5] (Leishmania donovani), the EC50 amounted to 9.3 ± 0.5 µM. In addition, the “S.I (CC50/IC50), L. donovani intracellular amastigote” value in data set [6] is 49.5. This molecule returned an EC50 in data set [6] (setting [8]) of 10.1 ± 1.1 µM.
Regarding `CCCCCCCCCCCCCCCCOP(=O)([O-])OCC[N+](C)(C)C` [Miltefosine, reference compound], the EC50 in data set [2] turned out to be 12.6 ± 1.1 µM; in data set [2] (Leishmania infantum) it was 12.4 µM; in data set [3] it was 4.8 ± 0.8 µM; in data set [4], 3.12 ± 0.16 µM; in data set [5] (Leishmania donovani) it was 2.8 ± 0.4 µM; in data set [6] (setting [8]), 6.4 ± 0.3 µM. Moreover, the half-life (commonly the time needed for the level to fall by half in the phase considered) in data set [7] is on record as 150 h.
